Measurements: BindingDB's records for doi:10.7270/Q2KP80J0 (The Scripps Research Institute Molecular Screening Center, 2007)
pIC50: −log10 of the molar value.

Target: T1, Ephrin type-B receptor 4 (Homo sapiens, UniProt P54760)
T1 sequence (P54760 whole entry): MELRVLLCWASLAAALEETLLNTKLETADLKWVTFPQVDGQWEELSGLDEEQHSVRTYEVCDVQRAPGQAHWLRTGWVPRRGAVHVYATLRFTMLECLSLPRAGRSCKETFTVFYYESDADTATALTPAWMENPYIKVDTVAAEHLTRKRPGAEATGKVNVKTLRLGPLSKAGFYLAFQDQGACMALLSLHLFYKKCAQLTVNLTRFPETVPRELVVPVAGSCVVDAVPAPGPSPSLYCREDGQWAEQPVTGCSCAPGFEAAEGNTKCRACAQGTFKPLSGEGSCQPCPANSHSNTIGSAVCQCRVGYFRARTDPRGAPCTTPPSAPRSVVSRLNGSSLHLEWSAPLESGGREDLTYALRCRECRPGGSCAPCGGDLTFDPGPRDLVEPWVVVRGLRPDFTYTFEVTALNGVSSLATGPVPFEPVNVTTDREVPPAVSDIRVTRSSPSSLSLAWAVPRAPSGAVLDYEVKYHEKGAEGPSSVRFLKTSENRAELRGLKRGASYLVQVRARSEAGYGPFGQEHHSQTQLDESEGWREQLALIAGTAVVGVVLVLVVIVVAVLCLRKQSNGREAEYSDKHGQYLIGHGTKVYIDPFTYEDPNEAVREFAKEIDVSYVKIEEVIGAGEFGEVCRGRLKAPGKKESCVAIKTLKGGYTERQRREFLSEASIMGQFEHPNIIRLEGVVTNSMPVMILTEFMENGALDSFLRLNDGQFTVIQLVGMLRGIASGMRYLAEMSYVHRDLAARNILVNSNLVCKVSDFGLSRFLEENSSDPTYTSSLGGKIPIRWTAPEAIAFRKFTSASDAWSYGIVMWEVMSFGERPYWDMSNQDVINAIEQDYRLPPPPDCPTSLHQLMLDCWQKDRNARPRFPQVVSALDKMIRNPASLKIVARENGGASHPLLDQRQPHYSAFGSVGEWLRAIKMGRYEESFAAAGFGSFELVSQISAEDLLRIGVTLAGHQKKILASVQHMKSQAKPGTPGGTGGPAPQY
Test: blockers of EphB4 ligand binding – biochemical, TNYL-RAW peptide displacement, dose response (AID 835)

Row | SMILES | pIC50
1 | CCC1CCCCN1C(=O)Nc1cccc(NC(=O)N2CCCCC2CC)c1 (configuration not stated) [2-ethyl-N-[3-[(2-ethylpiperidin-1-yl)carbonylamino]phenyl]piperidine-1-carboxamide] | < 4.10
2 | Cc1cc(=O)n(CC(C)C)c(O)c1C#N [2-hydroxy-1-isobutyl-4-methyl-6-oxo-1,6-dihydro-3-pyridinecarbonitrile] | < 4.10
3 | Cc1cccc(NC(=O)CSc2nnc(-c3ccc(S(=O)(=O)N4CCCC4)cc3)o2)c1 [2-{5-[4-(Pyrrolidine-1-sulfonyl)-phenyl]-[1,3,4]oxadiazol-2-ylsulfanyl}-N-m-tolyl-acetamide] | < 4.10
4 | COc1ccc(C(=O)NN=C2SCC(=O)N2Cc2ccc3c(c2)OCO3)cc1OC [3,4-Dimethoxy-benzoic acid (3-benzo[1,3]dioxol-5-ylmethyl-4-oxo-thiazolidin-2-ylidene)-hydrazide] | < 4.10
5 | N#Cc1ncc(C(F)(F)F)cc1Sc1ccc(N)cc1 [3-(4-aminophenyl)sulfanyl-5-(trifluoromethyl)pyridine-2-carbonitrile] | < 4.10
6 | COc1ccc2[nH]c(=O)c(CN(Cc3ccccc3)Cc3nnnn3CC3CCCO3)cc2c1 (configuration not stated) [3-({Benzyl-[1-(tetrahydro-furan-2-ylmethyl)-1H-tetrazol-5-ylmethyl]-amino}-methyl)-6-methoxy-1H-quinolin-2-one] | < 4.10
7 | C=CCn1c(C#N)c(N)sc1=N [3-Allyl-5-amino-2-imino-2,3-dihydro-thiazole-4-carbonitrile] | < 4.10
8 | Cn1c(=O)c(NCCc2ccccc2)c2c3c(cccc31)C(=O)c1ccccc1-2 [3-Methyl-1-phenethylamino-3H-naphtho[1,2,3-de]quinoline-2,7-dione] | 6.00
9 | Cc1cc(C(=O)CN2C(=O)NC(c3ccccc3)(c3ccccc3)C2=O)c(C)n1Cc1ccccc1 [3-[2-(1-benzyl-2,5-dimethyl-pyrrol-3-yl)-2-keto-ethyl]-5,5-diphenyl-hydantoin] | < 4.10
10 | Cc1cc(C)n2nc(SC3CCCCN(C(=O)c4ccc(F)cc4)C3=O)nc2n1 (configuration not stated) [3-[(5,7-dimethyl-[1,2,4]triazolo[1,5-a]pyrimidin-2-yl)sulfanyl]-1-(4-fluorobenzoyl)azepan-2-one] | < 4.10
11 | CCOC(=O)c1oc2cccc(O)c2c1CN(Cc1ccccc1)C(C)=O [3-[[acetyl(benzyl)amino]methyl]-4-hydroxy-coumarilic acid ethyl ester] | < 4.10
12 | CC1CCN(S(=O)(=O)c2cc(Br)cc(C(=O)NC3=NCCS3)c2)CC1 [3-bromanyl-N-(4,5-dihydro-1,3-thiazol-2-yl)-5-(4-methylpiperidin-1-yl)sulfonyl-benzamide] | < 4.10
13 | Clc1cccc(CN=Nc2ncnc3ccccc23)c1 [3-chlorobenzenecarbaldehyde N-(4-quinazolinyl)hydrazone] | < 4.10
14 | CC(C)CC(=O)NC(=S)NCCc1ccccc1 [3-methyl-N-(2-phenylethylcarbamothioyl)butanamide] | < 4.10
15 | O=C(CCC1N=C2c3ccccc3N=C(SCc3ccc(F)cc3)N2C1=O)NCc1ccco1 (configuration not stated) [3-{5-[(4-fluorobenzyl)thio]-3-oxo-2,3-dihydroimidazo[1,2-c]quinazolin-2-yl}-N-(2-furylmethyl)propanamide] | < 4.10
16 | O=C(CC(O)(c1ccccc1)C(F)(F)F)c1cccs1 (configuration not stated) [4,4,4-trifluoro-3-hydroxy-3-phenyl-1-(2-thienyl)-1-butanone] | < 4.10
17 | CC1=C(C(=O)N2CCC3(CC2)OCCO3)C2(CCC(C)CC2)OC1=O (configuration not stated) [4-(1,4-dioxa-8-azaspiro[4.5]dec-8-ylcarbonyl)-3,8-dimethyl-1-oxaspiro[4.5]dec-3-en-2-one] | < 4.10
18 | CN(c1ccc(Cl)cc1)c1cc(=O)n(C)c2ccccc12 [4-(4-chloro-N-methyl-anilino)-1-methyl-carbostyril] | < 4.10
19 | CCOC(=O)N1CCC(n2c(SCC(=O)NCc3ccccc3)nc3ccccc3c2=O)CC1 [4-[2-[[2-(benzylamino)-2-keto-ethyl]thio]-4-keto-quinazolin-3-yl]piperidine-1-carboxylic acid ethyl ester] | < 4.10
20 | CCOC(=O)N1CCC(n2c(SCC(=O)NCCC3=CCCCC3)nc3ccccc3c2=O)CC1 [4-[2-[[2-[2-(1-cyclohexenyl)ethylamino]-2-oxoethyl]thio]-4-oxo-3-quinazolinyl]-1-piperidinecarboxylic acid ethyl ester] | < 4.10
21 | CC(O)c1cccc(NC(=O)CCC(=O)O)c1 (configuration not stated) [4-[3-(1-hydroxyethyl)anilino]-4-keto-butyric acid] | < 4.10

Row | SMILES | pIC50
22 | O=S(=O)(N1CCOCC1)N1CCN(c2ccccc2F)CC1 [4-[4-(2-fluorophenyl)piperazin-1-yl]sulfonylmorpholine] | < 4.10
23 | O=C(O)CCC(=O)N1CCN(c2nc(-c3ccccc3Cl)c3cc(Br)ccc3n2)CC1 [4-[4-[6-bromanyl-4-(2-chlorophenyl)quinazolin-2-yl]piperazin-1-yl]-4-oxidanylidene-butanoic acid] | < 4.10
24 | CCOC(=O)c1ccc(NC(=S)NCC(O)c2ccccc2)cc1 (configuration not stated) [4-[(2-hydroxy-2-phenyl-ethyl)thiocarbamoylamino]benzoic acid ethyl ester] | < 4.10
25 | COC(=O)c1ccc(NC(=O)CN2CCN(c3cccc(Cl)c3)CC2)cc1 [4-[[2-[4-(3-chlorophenyl)-1-piperazinyl]-1-oxoethyl]amino]benzoic acid methyl ester] | < 4.10
26 | O=C(O)c1ccc(CSc2n[nH]c(-c3ccco3)n2)cc1 [4-[[5-(furan-2-yl)-1H-1,2,4-triazol-3-yl]sulfanylmethyl]benzoic acid] | < 4.10
27 | Fc1ccc(Sc2cc(Cl)c(-c3ccccc3)nn2)cc1 [4-chloranyl-6-(4-fluorophenyl)sulfanyl-3-phenyl-pyridazine] | < 4.10
28 | O=C(NN=C1C(=O)c2cccc3cccc1c23)c1ccc(Cl)cc1 [4-chloranyl-N-[(2-oxidanylideneacenaphthylen-1-ylidene)amino]benzamide] | 4.75
29 | Cc1cccc2c(C(=O)O)c3c(nc12)CCCCC3 [4-methyl-7,8,9,10-tetrahydro-6H-cyclohepta[b]quinoline-11-carboxylic acid] | < 4.10
30 | Cc1ccc(-n2ncc3c(=O)n(CC(=O)N4CCCCCC4)cnc32)cc1 [5-(2-azepan-1-yl-2-oxoethyl)-1-(4-methylphenyl)-1,5-dihydro-4H-pyrazolo[3,4-d]pyrimidin-4-one] | < 4.10
31 | Cc1ccc(-c2ccc(C(=O)O)[nH]2)cc1 [5-(4-methylphenyl)-1H-pyrrole-2-carboxylic acid] | < 4.10
32 | Oc1c(CN2CCCCC2)cc(COCc2ccccc2)c2cccnc12 [5-(benzoxymethyl)-7-(piperidinomethyl)quinolin-8-ol] | < 4.10
33 | COC(=O)c1ccc(COc2ccc3c(C)c(C)c(=O)oc3c2C)o1 [5-[(2-keto-3,4,8-trimethyl-chromen-7-yl)oxymethyl]furan-2-carboxylic acid methyl ester] | < 4.10
34 | CCCc1nnc(SCc2ccc(C(=O)OC)o2)n1N [5-[[(4-amino-5-propyl-1,2,4-triazol-3-yl)thio]methyl]-2-furancarboxylic acid methyl ester] | < 4.10
35 | Cc1onc(-c2ccccc2)c1C(=O)Nc1ccc(S(=O)(=O)NC2=NCCCCC2)cc1 [5-methyl-3-phenyl-N-[4-(3,4,5,6-tetrahydro-2H-azepin-7-ylsulfamoyl)phenyl]-1,2-oxazole-4-carboxamide] | < 4.10
36 | O=C(c1cnc2ccc(S(=O)(=O)N3CCC4(CC3)OCCO4)cc2c1O)N1CCOCC1 [6-(1,4-dioxa-8-azaspiro[4.5]dec-8-ylsulfonyl)-3-(morpholin-4-ylcarbonyl)quinolin-4(1H)-one] | < 4.10
37 | Cc1cc(NC(c2ccc(Cl)cc2)c2ccc3cccnc3c2O)no1 (configuration not stated) [7-[(4-chlorophenyl)-[(5-methyl-1,2-oxazol-3-yl)amino]methyl]quinolin-8-ol] | < 4.10
38 | O=C1CN(C(=O)CN2CCCCC2)C(c2ccccc2)c2cc(Br)ccc2N1 (configuration not stated) [7-bromanyl-5-phenyl-4-(2-piperidin-1-ylethanoyl)-3,5-dihydro-1H-1,4-benzodiazepin-2-one] | < 4.10
39 | CCc1cccc2c(C#N)cn(CC(=O)N3CCOCC3)c12 [7-ethyl-1-[2-(4-morpholinyl)-2-oxoethyl]-1H-indole-3-carbonitrile] | < 4.10
40 | Cc1cc(N2CCN(c3ccccn3)CC2)n2cc(-c3ccccc3)nc2n1 [7-methyl-2-phenyl-5-(4-pyridin-2-ylpiperazin-1-yl)imidazo[1,2-a]pyrimidine] | < 4.10
41 | Cn1cc(Cl)c(C(=O)OCC(=O)Nc2ccccc2)n1 [(2-anilino-2-oxoethyl) 4-chloro-1-methylpyrazole-3-carboxylate] | < 4.10
42 | Cc1cc(OC(=O)c2ccco2)c2c3c(c(=O)oc2c1)CCCC3 [(3-methyl-6-oxidanylidene-7,8,9,10-tetrahydrobenzo[c]chromen-1-yl) furan-2-carboxylate] | < 4.10
